Measured values from patent publication US7820624B2, “Peptide ligands” (ICH Productions Limited, priority 2003, dated 2010).
Entries after “also recorded” stand apart in the source; their conditions may differ.

What was measured:
[1] = system: human monocyte-derived immature dendritic cells; assay: Titration of phage clone binding to human dendritic cells; settings: 2×10^11 phage on 5×10^4 cells, 1 hour on ice
Procedure: Phage were recovered and titred from each round of selection as follows. 2×10^11 Blocked phage were added to 5×10^4 blocked monocyte-derived immature dendritic cells for 1 hour on ice before washing cells three times with 0.05% Tween20-PBS, eluting phage with TBS pH5.5, and lysing cells to harvest the phage remaining bound. The numbers of phage harvested by cell lysis were calculated as plaque forming units (pfu). […] Sequencing of the bound phage shown in FIG. 1 identified the peptides as APSNSTA [SEQ. ID. NO.:15], QLLTGAS [SEQ. ID. NO.:30], TARDYRL [SEQ. ID. NO.:31], FQSQYQK [SEQ. ID. NO.:26], PLMPSLS [SEQ. ID. NO.:24], FPRAPHH [SEQ. ID. NO.:32], MASISMK [SEQ. ID. NO.:27], DWWHTSA [SEQ. ID. NO.:28], SHVKLNS [SEQ. ID. NO.:29], and SPALKTV [SEQ. ID. NO.:16].
(§1) The dendritic cells were spun down at 2000 rpm, for 5 min at 4° C., and resuspended in the phage solution, allowing the phage to bind for 1 hour on ice with occasional mixing. The cells were then washed in PBS-Tween 20 (0.05%) three times before eluting phage with 166 μl TBS pH5.5. for 10 min on ice. The eluate was neutralised with […] Tris-HCl pH 8, the cells were spun down, and the supernatant removed to be stored as eluate. The cell pellet was resuspended in 200 μl of cell lysis buffer (30 mM Tris-HCl, 1 mM EDTA pH 8.0) for 1 hour on ice, with shaking. The cell debris was removed by spinning at 5000 rpm for 5 min and the supernatant recovered. The phage in the eluate and the cell lysate were titred by measuring plaque forming units (pfu) in E. coli ER2738 as described in the NEB C7C technical bulletin.
(§2) The titration of phage clone binding was carried out using human and mouse dendritic cells, with binding to plastic as a control. The human cells were obtained from donors as stated below.

N2a (Neuro2A) cells = assay: LID transfection, luciferase reporter assay, N2a; type: cell-based, mouse; settings: LID with lipofectin
Procedure: (§3) Transfection complexes comprising lipid, peptide and DNA were prepared. The lipid component was lipofectin (Invitrogen Ltd, Paisley, UK), the peptide component was a peptide A to F, 6 or 6J derivative, as described above, and the DNA was the plasmid pCILuc (Promega UK Ltd, Southampton). In the transfection complex, peptide to DNA charge ratios (+/−) were used at 3:1, 5:1 and 7:1. The lipid component was maintained at a constant proportion, by weight, relative to DNA of 0.75:1. Prior to making transfection complexes the lipid component was diluted to a concentration of 15 μg or 30 μg per ml, the peptide was prepared at 0.1 mg/ml and the DNA was at 40 μg per ml. All dilutions were performed with OptiMEM reduced serum tissue culture medium (Life Technologies). Transfection complexes were made by mixing of components in the order 1) lipid then 2) peptide and finally 3) DNA, then diluted with OptiMEM to a concentration relative to the DNA component of 0.25 μg DNA per […]
(§4) For transfection of these types of cell i.e. HMEC, HAEo-, N2a and HepG2, 1×10^4 cells were seeded overnight in 96 well plate. 200 μl of the suspension of the transfection complex prepared according to (b) above was added to each well. The suspension was applied to cells within 5 minutes of preparation. […]

HMEC-1 cells = assay: LID transfection, luciferase reporter assay, HMEC-1; type: cell-based, human; settings: LID with lipofectin
Procedure: as §3, §4

mouse dendritic cells = assay: Titration of phage clone binding to mouse dendritic cells; settings: 2×10^11 phage
Procedure: as §1, §2

[2] = system: human monocyte-derived immature dendritic cells; assay: Whole cell flow cytometry (FACS) of phage clone binding; settings: day 4 cells, several donors; versus phage clone with no insert
Procedure: 5×10^4 Dendritic cells and 2×10^11 of an individual purified phage clone were each blocked at 4° C. for 30 mins in 1 ml MBSA (2% Marvel, 5% BSA in PBS), with mixing on a turntable. The dendritic cells were spun down at 2000 rpm, a gentle centrifugation to pellet cells without lysing them, for 5 min at 4° C., and the pellet resuspended in the blocked phage solution. The mixture was held on ice for 30 min to allow the phage to bind, before spinning down the cells, removing the supernatant and washing the cells with 1 ml 1% BSA, 0.05% Tween20-PBS. The cells were spun again, the supernatant removed, and the cells fixed in 1 ml 1% paraformaldehyde for 30 min on ice. […] The cells were incubated with the antibody on ice for 30 min before spinning down, washing twice in 0.05% Tween20, 1% BSA PBS, resuspending in […] and measuring the percentage cells positive for FITC by FACS analysis.
Alternatively, 5×10^4 dendritic cells were mixed with 2×10^11 of individual phage clones as described for panning of the phage library. The mixture of phage and DC suspensions was kept on ice for 30 min before cells were centrifuged to remove the supernatant and washed with 1 ml 1% BSA, 0.05% Tween 20-PBS. The cells were again pelleted by centrifugation, then fixed for flow cytometry analysis by resuspending in 1 ml of 1% paraformaldehyde for 30 min on ice. […] The cells were incubated with the antibody on ice for 30 min then pelleted by centrifugation, washed twice in 0.05% Tween 20, 1% BSA PBS and resuspended in 200 μl PBS. The percentage of FITC-positive cells was determined by flow cytometry using a Epics XL flow cytometer (Beckman Coulter, High Wycombe, UK.).

[3] = Titration of phage clone binding to blocked plastic (control)
Procedure: as §1, §2

## APSNSTA (Synthetic peptide binding to dendritic cells)
[1]
  Phage harvested by cell lysis (pfu), human donor S: 6480 pfu ×10^3
  Phage harvested by cell lysis (pfu), human donor one: 1920 pfu ×10^3
  Phage harvested by cell lysis (pfu), human donor two: 460 pfu ×10^3
N2a (Neuro2A) cells
  Transfection efficiency (luciferase activity per mg protein) relative to peptide 6: less than half that value
HMEC-1 cells
  Transfection efficiency (luciferase activity per mg protein) relative to peptide 6: one and a half times that of peptide 6
Mouse dendritic cells
  Phage titre (pfu), mouse DCs: 480 pfu ×10^3
[2]
  Percentage of cells positive for bound phage (FITC) by FACS: binding to a higher percentage of cells than a phage clone bearing no insert; also recorded: bind to dendritic cells in highest amounts; also recorded: binding to dendritic cells in highest amounts
[3]
  Phage titre (pfu), plastic: 480 pfu ×10^3

## SHVKLNS (Synthetic peptide binding to dendritic cells)
[1]
  Phage harvested by cell lysis (pfu), human donor S: 7280 pfu ×10^3
  Phage harvested by cell lysis (pfu), human donor one: 2620 pfu ×10^3
  Phage harvested by cell lysis (pfu), human donor two: 1160 pfu ×10^3
N2a (Neuro2A) cells
  Transfection efficiency (luciferase activity per mg protein) relative to peptide 6: equal to those seen with peptide 6
HMEC-1 cells
  Transfection efficiency (luciferase activity per mg protein) relative to peptide 6: approximately equal to that seen with peptide 6
Mouse dendritic cells
  Phage titre (pfu), mouse DCs: 2120 pfu ×10^3
[2]
  Percentage of cells positive for bound phage (FITC) by FACS: binding to a higher percentage of cells than a phage clone bearing no insert; also recorded: bind to dendritic cells in highest amounts; also recorded: binding to dendritic cells in highest amounts
[3]
  Phage titre (pfu), plastic: 720 pfu ×10^3
